Patent US10106519B2, “3-phenyl-7-hydroxy-isocoumarins as macrophage migration inhibitory factor (MIF) inhibitors” (The Provost, Fellows, Foundation Scholars, & the Other …, priority 2014, dated 2018)
“Also recorded” adds a separate entry of the source.

Test system: Lewis Lung carcinoma cells
Assay: Subcutaneous LLC1 tumour model with in vivo tautomerase inhibitor treatment
Set-up: species or system C57BL/6 mice
Procedure: Log phase cultures of LLC-1 cells were harvested by trypsinisation and washed three times with sterile phosphate buffered saline (PBS) and resuspended at a cell density of 5×10^5/ml in PBS. Animals were shaved with an electric shaver 24 hours before subcutaneous injection. 5×10^5 Lewis Lung cells were injected subcutaneously into the left flank of C57BL/6 mice of 6-8 weeks. Animals were monitored for the duration of the experiment and tumour measurements were recorded twice weekly with a digital callipers. Tumour volume (mm^3) was calculated as 0.5×L×W^2, where length is representative of the larger tumour diameter and the width represents the smaller tumour diameter. Animals are sacrificed when tumours reach a diameter of 15 mm or if tumours become ulcerated. Tumours are then removed along with the lungs, spleen and liver.
30 minutes prior to LLC-1 inoculation, inhibitors (TI 19/ISO-1) were administered at a concentration of 35 mg/kg in a volume of 100 μl 5% DMSO in sterile PBS. Control groups were given injections of vehicle 5% DMSO in sterile PBS or sterile PBS alone. Animals were treated twice weekly for four weeks.
In order to assess the antitumour activity of the novel tautomerase inhibitors in vivo, a subcutaneous LLC-1 cell model was set up. The subcutaneous model was chosen so that tumours could be easily visualised and measured during the course of the experiment and to allow assessment of the growth of the tumour in real time. Lewis Lung carcinoma cells (5×10^5) were injected sub-cutaneously into the left flank of C57BL/6 mice. Caliper measurements were taken twice weekly and tumour volume (mm^3) was calculated as 0.5×L×W^2. […] The cut off point for this model was when the tumour measured 15 mm in diameter. This model gave us an indication of normal tumour growth in this subcutaneous model. It can be seen from this model that from day 22 to day 28 the size of the tumour grows considerably.
Once it was determined that the enzymatic activity played a role in the growth of tumours, the subcutaneous LLC model was then used to assess the efficiency of the small weight molecular inhibitors. C57/B16 mice were injected intraperitoneally with 35 mg/kg of each of the inhibitors 30 minutes prior to subcutaneous tumour inoculation and again twice weekly for 4 weeks. Animals were monitored daily and tumour measurements taken until the tumour measured 15 mm in diameter.

**Q.** How did the tumour volume (35 mg/kg intraperitoneally 30 min prior to inoculation and twice weekly (FIG. 8)) turn out when Cc1ccccc1-c1cc2ccccc2c(=O)o1 [TI 19] was run?
**A.** 116.1±30.41 mm^3

**Q.** What about the “reduction in tumour size, in words” value (35 mg/kg intraperitoneally, versus untreated or vehicle (DMSO) group (FIG. 8)) of the same molecule?
**A.** significant reduction in tumour size; also recorded: significant reduction in tumour volume

**Q.** What about the “effectiveness in reducing tumour size relative to ISO-1” value (at 28 days) of the same molecule?
**A.** approximately twice as effective
